“Also recorded” adds a separate entry of the source. Where two headings read alike, the source gives them in different places.
How the values were obtained:
[1] = system: Human ES cells (KhES #1); assay: Hypothalamus gene marker expression in human ES cells by modified SFEBq/gfCDM (quantitative PCR, day 31); type: cell-based; conditions: insulin 7 μg/ml, 31 days
[2] = system: Rx-GFP ES cells; assay: Differentiation into hypothalamic progenitor cells by SFEBq/gfCDM, percentage of Rx-GFP+ cells by FACS on day 7; type: cell-based, mouse; conditions: for Rx-GFP positivity rate recovered in the presence of insulin: LY294002 5 μM, Akt inhibitor VIII 2 μM
Description: Differentiation culture was performed under the same culturing conditions as Example 13 for 7 days. For analyzing the differentiated cells, an antibody against the Rx protein, which is a hypothalamic and retinal progenitor cell marker, was used. In hypothalamic progenitor cells, in addition to Rx, a protein called nestin is expressed, whereas in retinal progenitor cells, only Rx is expressed but nestin is not expressed, so that hypothalamic progenitor cells were identified by a fluorescent immunostaining method with the co-expression of Rx and nestin as an index.
Furthermore, EB5 cells wherein GFP was knocked in at the Rx gene locus (hereinafter, Rx-GFP ES cells) were prepared, and the expression of Rx-GFP was also analyzed by FACS.
(§1) Differentiation culture was performed under the same culturing conditions as Example 14 for 7 days, and the influence of the addition of insulin to the medium on the differentiation of hypothalamic progenitor cells from ES cells was analyzed by FACS using Rx-GFP ES cells. The intracellular signal transduction of insulin is involved by roughly two pathways (MAPK pathway and PI3K-Akt pathway). […] LY294002, Akt inhibitor VIII, PD98059 or DMSO (vehicle control) was added on day 2 of cultivation.

[3] = system: aggregate masses derived from a mouse ES cell; assay: Ca++ imaging (fluo4-AM) of cerebral neurons produced by the SFEBq method; type: cell-based
Description: To confirm the activities and network formation of cerebral neurons produced by the SFEBq method, an analysis was performed by a Ca^++ imaging method using fluo4-AM. The method of examination was as described in the literature (Ikegaya et al, 2005, Neurosci. Res., 52, 132-138).
Aggregate masses derived from a mouse ES cell cultured by the method described in Example 1 for 18 days were further cultured on the Transwell culture insert (Corning) using a DMEM/F12 medium supplemented with N2 for 7 days (FIG. 3A, view A). Ca^++ imaging was performed at room temperature using an artificial cerebrospinal fluid.

[4] = system: Rx-GFP ES cells; assay: Dorsal/ventral hypothalamic marker expression in Rx-GFP-positive re-aggregate masses (fluorescent immunostaining, day 13); type: cell-based, mouse
Description: The cells of each fraction were dispensed to a non-cell-adhesive 96-well culture plate at 2500-5000 cells per well, and further cultured using a DMEM/F12 medium supplemented with 7 g/L glucose, 10% KSR and penicillin/streptomycin for 3 days. […] Three days later, half the medium was replaced with a DFNB medium (a DMEM/F12 supplemented with 7 g/l of glucose, 1×N2 supplement and 1×B27 supplement) supplemented with 10 ng/ml of CNTF, and the cells were further cultured for 3 days.
After cultivation for a total of 13 days, the re-aggregate masses were prepared as frozen sections, and the properties of the differentiated cells were analyzed by a fluorescent immunostaining method. For evaluating the effect of Shh, 30 nM Shh was added from 4 days after the start of cultivation.

[5] = system: Bf1/Venus-mES cells; assay: Layer-specific neuron differentiation of FACS-sorted, re-aggregated SFEBq cerebral progenitors after Notch inhibition (fluorescent immunostaining); type: cell-based, mouse; conditions: further 6 days culture
Description: After Bf1/Venus-mES cells were cultured for differentiation for different lengths of periods (9 days or 12 days), the resulting Venus-positive cells were separated by FACS, and rapid re-aggregation (5000 cells/well) was performed using a non-cell-adhesive 96-well culture plate. Starting on the following day, rapid induction of differentiation into neurons was performed by a treatment with the Notch inhibitor DAPT (10 μM; known to promote neuron differentiation; Nelson et al, 2007); after further differentiation culture for 6 days, layer-specific markers were analyzed by a fluorescent immunostaining method (FIG. 6, view A).

[6] = system: Mouse ES cells (EB5 and Sox1-GFP ES cells); assay: Nerve differentiation of mouse ES cells by the SFEBq/gfCDM method; type: cell-based; conditions: 15 μg/ml in differentiation medium
Description: To induce the differentiation of nerves by suspension culture, ES cells were mono-dispersed using 0.25% trypsin-EDTA (Invitrogen), suspended in 150 μl of a differentiation medium to obtain a cell density of 3000 cells per well on a non-cell-adhesive 96-well culture plate (Lipidure-Coat, NOF Corp.), and incubated at 37° C., 5% CO2 for 5 days.
The differentiation medium used was Iscove's Modified Dulbecco's Medium (IMDM)/Hams F12 1:1 (Invitrogen) supplemented with 1× Chemically-defined lipid concentrate (Invitrogen), monothioglycerol (450 μM; Sigma) and bovine serum albumin (a recrystallization-purified product of >99% purity; Sigma).
Differentiation into nerve progenitor cells was analyzed as described previously (Watanabe et al., Nature Neuroscience, 2005) by FACS using Sox1-GFP ES cells that emit fluorescence when differentiated into nerves. The FACS was performed using FACSAria (Beckton Dickenson) and its data were analyzed using FACSDiva software. Nerve differentiation was also analyzed by a fluorescent immunostaining method using EB5 cells.

[7] = system: SFEBq culture product; assay: qPCR of marker genes in the SFEBq culture product with insulin; type: cell-based, mouse; conditions: insulin treatment
Description: The expression of a marker gene is analyzed by, for example, performing quantitative PCR using the 7500 Fast Real-Time PCR System (Applied Biosystems) in accordance with the manufacturer's instructions, and normalizing the obtained data by the expression of GAPDH. The method of quantitative PCR is obvious to those skilled in the art. Alternatively, cells may be manipulated to allow the desired marker gene to be expressed as a fusion protein of a marker gene product and GFP or the like (knocking-in). It is also possible to detect the expression of the protein using an antibody specific for a marker gene product.
as §1

[8] = system: Bf1/Venus-mES cells; assay: Cerebral site-specific differentiation of re-aggregated SFEBq cerebral progenitors with secreted pattern formation factors (fluorescent immunostaining); type: cell-based, mouse; conditions: BMP4 0.5 ng/ml
Description: Bf1/Venus-mES cells were cultured for differentiation by the SFEBq method for 7 days, after which the resulting Venus-positive cells were separated by FACS, and rapid re-aggregation (5000 cells/well) was performed using a non-cell-adhesive 96-well culture plate. Secreted pattern formation factors such as Fgf 8b (50 ng/ml), the Fgf receptor inhibitor FGFR3-Fc (50 ng/ml), Wnt3a (20 ng/ml), and BMP4 (0.5 ng/ml) were added thereto, and the cells were cultured for 3 to 12 days. The expression of cerebral part-specific markers was analyzed by a fluorescent immunostain method (FIG. 7A, view A).

[9] = 7 μg/ml insulin, added on day 2
[10] = room temperature, artificial cerebrospinal fluid
[11] = 10 μM treatment after 12 days of differentiation culture

O=c1[nH]c2ccccc2n1C1CCN(Cc2ccc(-c3nc4cc5[nH]cnc5cc4nc3-c3ccccc3)cc2)CC1 [Akt inhibitor VIII, 1,3-Dihydro-1-(1-((4-(6-phenyl-1H-imidazo[4,5-g]quinoxalin-7-yl)phenyl)methyl)-4-piperidinyl)-2H-benzimidazol-2-one]
Rx expression without addition of Akt inhibitor VIII, relative to culture with 2 μM from day 9 [1]: 50% | Vax1 expression without addition of Akt inhibitor VIII, relative to culture with 2 μM from day 9 [1]: 25% | Rx-GFP positivity rate recovered in the presence of insulin [2, 9]: ~28%

N#Cc1cc2[nH]c(=O)c(=O)[nH]c2cc1[N+](=O)[O-] [CNQX]
repeated synchronized Ca++ elevations over a long distance (Ca++ oscillation) [3, 10]: inhibited

CC1=C2C[C@H]3[C@@H](CC=C4C[C@@H](O)CC[C@@]43C)[C@@H]2CC[C@]12O[C@@H]1C[C@H](C)CN[C@H]1[C@H]2C [Cyclopamine, 11-Deoxojervine]
expression of dorsal/ventral hypothalamus markers compared with the Shh treatment [4]: reverse result

C[C@H](NC(=O)Cc1cc(F)cc(F)c1)C(=O)N[C@H](C(=O)OC(C)(C)C)c1ccccc1 [DAFT]
cells differentiated into Reelin-positive Cajal-Retzius cells ([5]; 10 μM treatment after 9 days of differentiation culture): more than 50% | Reelin-positive cells [5, 11]: less than 10% | cells differentiated into Ctip2/Emx1-positive cerebral cortical neurons specific for the 5th layer [5, 11]: more than 60%

Cl.O=c1cc(N2CCOCC2)oc2c(-c3ccccc3)cccc12 [LY294002, 2-(4-morpholinyl)-8-phenyl-1(4H)-benzopyran-4-one hydrochloride]
Rx-GFP positivity rate recovered in the presence of insulin [2, 9]: about 20%

COc1cccc(-c2cc(=O)c3ccccc3o2)c1N [PD98059]
antagonism of the inhibitory effect of insulin on differentiation into hypothalamic progenitor cells ([2]; 7 μg/ml insulin, PD98059 0.5-10 μM, added on day 2): did not antagonize; also recorded: not noted

c1ccc2c(Oc3nc(Nc4ccc(N5CCOCC5)cc4)c4ncn(C5CCCCC5)c4n3)cccc2c1 [Purmorphamine, 2-(1-Naphthoxy)-6-(4-morpholinoanilino)-9-cyclohexylpurine]
expression of dorsal/ventral hypothalamus markers compared with the Shh treatment ([4]; Cyclopamine treatment, Purmorphamine 0.5 μM in place of Shh): same effects as with Shh

NC(=O)CC[C@H](N)C(=O)O [glutamine]
Ca++ elevations synchronized or not synchronized with surrounding cells [3, 10]: enhanced

O=[Se](O)O [sodium selenite]
percentage of Rx-GFP ([2]; concentration in differentiation medium increased from 0.017 mg/L to 0.025 mg/L, control 50-70%): about 80%

NC1=N[C@H](O)[C@H]2[C@H]3O[C@]4(O)O[C@@H]([C@@H](O)[C@@]2(N1)[C@@H]4O)[C@]3(O)CO [tetrodotoxin]
Ca++ elevations synchronized or not synchronized with surrounding cells [3]: inhibited | repeated synchronized Ca++ elevations over a long distance (Ca++ oscillation) [3]: inhibited

human apo-transferrin: human apo-transferrin (Sigma), medium additive
influence of addition or non-addition on the differentiation results [6]: did not influence

insulin: insulin added to serum-free medium
expression of a caudal marker [7]: induced moderately | expression of the most rostral CNS marker [7]: suppressive effect | Rx-GFP positivity rate ([2]; 7 μg/ml insulin): less than 5% | expression of Rx-GFP, time-window analysis ([2]; insulin 7 μg/ml added to gfCDM on day 5 or before): suppressed | effect on Rx-GFP+%, time-window analysis ([2]; insulin 7 μg/ml present after day 4): decreased substantially | effect on Rx-GFP+%, time-window analysis ([2]; insulin 7 μg/ml present during the first 3 days): almost no inhibitory effect

B1: Wnt3a: protein belonging to the Wnt family, Wnt signal promoter (protein, UniProt P56704 19-352, looked up)
Protein Wnt-3a: SYPIWWSLAVGPQYSSLGSQPILCASIPGLVPKQLRFCRNYVEIMPSVAEGIKIGIQECQHQFRGRRWNCTTVHDSLAIFGPVLDKATRESAFVHAIASAGVAFAVTRSCAEGTAAICGCSSRHQGSPGKGWKWGGCSEDIEFGGMVSREFADARENRPDARSAMNRHNNEAGRQAIASHMHLKCKCHGLSGSCEVKTCWWSQPDFRAIGDFLKDKYDSASEMVVEKHRESRGWVETLRPRYTYFKVPTERDLVYYEASPNFCEPNPETGSFGTRDRTCNVSSHGIDGCDLLCCGRGHNARAERRREKCRCVFHWCCYVSCQECTRVYDVHTCK
cells expressing Otx2 and Lmx1a (hem area markers) ([8]; Wnt3a 20 ng/ml): 2-30%

B2: BMP4: protein belonging to the BMP family, BMP signal promoter (protein, UniProt P12644 293-408, looked up)
Bone morphogenetic protein 4: SPKHHSQRARKKNKNCRRHSLYVDFSDVGWNDWIVAPPGYQAFYCHGDCPFPLADHLNSTNHAIVQTLVNSVNSSIPKACCVPTELSAISMLYLDEYDKVVLKNYQEMVVEGCGCR
differentiation of choroidal tissue (TTR-positive) [8]: noted
